PMC11084659, “The Development of CDC25A-Derived Phosphoseryl Peptides That Bind 14-3-3ε with High Affinities” (International Journal of Molecular Sciences, 2024)
Where a SMILES comes first, the peptide text is derived from it. [ ]: non-standard residue; d: D form. pS = N[C@@H](COP(=O)(O)O)C(=O)O

T1: 14-3-3ε (Homo sapiens, UniProt P62258)
T1 construct: purchased Novus Biologicals
T1 sequence (P62258 1-255): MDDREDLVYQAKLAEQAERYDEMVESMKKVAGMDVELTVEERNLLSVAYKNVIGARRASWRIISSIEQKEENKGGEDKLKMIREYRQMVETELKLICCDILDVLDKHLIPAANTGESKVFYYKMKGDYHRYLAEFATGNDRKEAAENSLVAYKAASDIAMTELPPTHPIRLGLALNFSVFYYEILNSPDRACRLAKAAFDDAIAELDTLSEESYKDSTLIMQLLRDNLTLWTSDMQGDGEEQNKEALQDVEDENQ

T2: (His)6-14-3-3ε (UniProt P62258 1-255)
T2 construct: 14-3-3 protein epsilon; also called His-tagged protein; source: bought: Novus Biologicals
T2 sequence (looked up): T1 sequence (P62258 1-255)

B1: pS(174–182) (peptide)
peptide: Ac-QRQN[pS]APAR-NH2
SMILES: CC(=O)N[C@@H](CCC(N)=O)C(=O)N[C@@H](CCCNC(=N)N)C(=O)N[C@@H](CCC(N)=O)C(=O)N[C@@H](CC(N)=O)C(=O)N[C@@H](COP(=O)(O)O)C(=O)N[C@@H](C)C(=O)N1CCC[C@H]1C(=O)N[C@@H](C)C(=O)N[C@@H](CCCNC(=N)N)C(N)=O
notes: CDC25A residues 174-182, with phosphoserine at 178; also called Ac-CDC25A(174–182)-NH2; source: synthetic peptide (Biosynth International Inc.), >95% purity
B2: [Tyr^176]pS(174–182) (peptide)
peptide: Ac-QRYN[pS]APAR-NH2
SMILES: CC(=O)N[C@@H](CCC(N)=O)C(=O)N[C@@H](CCCNC(=N)N)C(=O)N[C@@H](Cc1ccc(O)cc1)C(=O)N[C@@H](CC(N)=O)C(=O)N[C@@H](COP(=O)(O)O)C(=O)N[C@@H](C)C(=O)N1CCC[C@H]1C(=O)N[C@@H](C)C(=O)N[C@@H](CCCNC(=N)N)C(N)=O
notes: CDC25A residues 174-182, with phosphoserine at 178 and Gln176 replaced by Tyr; source: synthetic peptide (Biosynth International Inc.), >95% purity
B3: [Tyr^179]pS(174–182) (peptide)
peptide: Ac-QRQN[pS]YPAR-NH2
SMILES: CC(=O)N[C@@H](CCC(N)=O)C(=O)N[C@@H](CCCNC(=N)N)C(=O)N[C@@H](CCC(N)=O)C(=O)N[C@@H](CC(N)=O)C(=O)N[C@@H](COP(=O)(O)O)C(=O)N[C@@H](Cc1ccc(O)cc1)C(=O)N1CCC[C@H]1C(=O)N[C@@H](C)C(=O)N[C@@H](CCCNC(=N)N)C(N)=O
notes: CDC25A residues 174-182, with phosphoserine at 178 and Ala179 replaced by Tyr; source: synthetic peptide (Biosynth International Inc.), >95% purity
B4: [Phe^176]pS(174–182) (peptide)
peptide: Ac-QRFN[pS]APAR-NH2
SMILES: CC(=O)N[C@@H](CCC(N)=O)C(=O)N[C@@H](CCCNC(=N)N)C(=O)N[C@@H](Cc1ccccc1)C(=O)N[C@@H](CC(N)=O)C(=O)N[C@@H](COP(=O)(O)O)C(=O)N[C@@H](C)C(=O)N1CCC[C@H]1C(=O)N[C@@H](C)C(=O)N[C@@H](CCCNC(=N)N)C(N)=O
notes: CDC25A residues 174-182, with phosphoserine at 178 and Gln176 replaced by Phe; source: synthetic peptide (Biosynth International Inc.), >95% purity
B5: [Lys^177]pS(174–182) (peptide)
peptide: Ac-QRQK[pS]APAR-NH2
SMILES: CC(=O)N[C@@H](CCC(N)=O)C(=O)N[C@@H](CCCNC(=N)N)C(=O)N[C@@H](CCC(N)=O)C(=O)N[C@@H](CCCCN)C(=O)N[C@@H](COP(=O)(O)O)C(=O)N[C@@H](C)C(=O)N1CCC[C@H]1C(=O)N[C@@H](C)C(=O)N[C@@H](CCCNC(=N)N)C(N)=O
notes: CDC25A residues 174-182, with phosphoserine at 178 and Asn177 replaced by Lys; source: synthetic peptide (Biosynth International Inc.), >95% purity
B6: [Phe^179]pS(174–182) (peptide)
peptide: Ac-QRQN[pS]FPAR-NH2
SMILES: CC(=O)N[C@@H](CCC(N)=O)C(=O)N[C@@H](CCCNC(=N)N)C(=O)N[C@@H](CCC(N)=O)C(=O)N[C@@H](CC(N)=O)C(=O)N[C@@H](COP(=O)(O)O)C(=O)N[C@@H](Cc1ccccc1)C(=O)N1CCC[C@H]1C(=O)N[C@@H](C)C(=O)N[C@@H](CCCNC(=N)N)C(N)=O
notes: CDC25A residues 174-182, with phosphoserine at 178 and Ala179 replaced by Phe; source: synthetic peptide (Biosynth International Inc.), >95% purity
B7: pS peptide, CDC25A residues 173–186 (peptide)
peptide: Ac-TQRQN[pS]APARMLSS-NH2
SMILES: CSCC[C@H](NC(=O)[C@H](CCCNC(=N)N)NC(=O)[C@H](C)NC(=O)[C@@H]1CCCN1C(=O)[C@H](C)NC(=O)[C@H](COP(=O)(O)O)NC(=O)[C@H](CC(N)=O)NC(=O)[C@H](CCC(N)=O)NC(=O)[C@H](CCCNC(=N)N)NC(=O)[C@H](CCC(N)=O)NC(=O)[C@@H](NC(C)=O)[C@@H](C)O)C(=O)N[C@@H](CC(C)C)C(=O)N[C@@H](CO)C(=O)N[C@@H](CO)C(N)=O
notes: CDC25A residues 173-186, with phosphoserine at 178; also called parent pS peptide; source: synthetic peptide (Biosynth International Inc.), >95% purity

Key:
14-3-3ε [1] = target: T1, 14-3-3ε; assay: Differential scanning fluorimetry (DSF), melting temperature shift of 14-3-3ε; assay type: binding; conditions: 30 μM peptide, 2 µM 14-3-3ε, SYPRO-orange, 20 mM TRIS, 150 mM NaCl, 1 mM DTT, pH 7.4, average ± SD of n ≥ 5
Experimental: (§1) The binding of the peptides to 14-3-3ε was further assessed using differential scanning fluorometry (DSF) and surface plasmon resonance (SPR) measurements. DSF was used to determine the effects of the peptides on the melting temperature (Tm) of 14-3-3ε (Table 4, Figure 6 and Figure S4). The pS peptide caused an increase in melting temperature (ΔTm) of 0.35 ± 0.16 °C, while pS(174–182) induced no ΔTm. The Phe and Tyr substitutions in position 176 led to ΔTm of 1.08 ± 0.34 °C and 1.10 ± 0.32 °C, respectively. Lys, Phe, and Tyr substitutions in position 179 led to ΔTm of between 0.00 and 0.23 °C (Table 4). To quantitatively determine the affinity of the peptides for 14-3-3ε protein using SPR, His-tagged protein was immobilized on a nitrilotriacetic acid (Ni-NTA) sensor chip, and then binding of the peptides analogs to the protein was determined.
Thermal unfolding of 14-3-3ε (2 µM) and its complex with peptides (30 μM) was monitored in the presence of a hydrophobic protein-binding dye, SYPRO-orange (Invitrogen, Carlsbad, CA, USA), using the BioRad CFX384 Touchreal-time PCR (Hercules, CA, USA). The assays were performed in 20 mM TRIS, 150 mM NaCl, 1 mM DTT, and pH 7.4 buffer. The first derivative of the melting curves was plotted using GraphPad Prism software, version 10.0.3 to determine Tm of the protein. ΔTm was determined as the difference between Tm of 14-3-3ε in the presence of a peptide and Tm of 14-3-3ε alone.

14-3-3ε [2] = target: T1, 14-3-3ε; assay: Surface plasmon resonance (SPR), steady-state affinity on immobilized His6-14-3-3ε; assay type: binding
Experimental: as §1
The SPR analyses were carried out using the Biacore 8K surface plasmon resonance instrument (Cytiva, Marlborough, MA, USA). A total of 100 nM His6-14-3-3ε was immobilized on the NiCl2-activated NTA chip (Cytiva, Marlborough, MA, USA) as previously described. Then, different concentrations of peptide in the range of 0−500 μM (depending on the peptide) were injected. The experiments were performed in 20 mM TRIS, 150 mM NaCl, 50 μM EDTA, 0.005% Tween 20, and pH 7.4 buffer. The affinities of the peptides binding to 14-3-3ε were determined by fitting the data to a steady-state binding model using Biacore Insight Evaluation Software (version 5.0.18.22102).

cSCC cells = conditions: read-out: IC50, death of cSCC cells; cited from earlier work
(His)6-14-3-3ε [3] = target: T2, (His)6-14-3-3ε; assay: SPR; Biacore 8K; 100 nM His6-14-3-3ε immobilized on NiCl2-activated NTA chip; peptides injected at 0-500 μM (depending on the peptide); 20 mM TRIS, 150 mM NaCl, 50 μM EDTA, 0.005% Tween 20, pH 7.4; steady-state binding model; conditions: both partners purified
(His)6-14-3-3ε [4] = target: T2, (His)6-14-3-3ε; assay: as above; conditions: both partners purified; remark: listed apart in the source
(His)6-14-3-3ε [5] = target: T2, (His)6-14-3-3ε; assay: differential scanning fluorimetry; 14-3-3ε 2 µM with peptide 30 μM, SYPRO-orange; 20 mM TRIS, 150 mM NaCl, 1 mM DTT, pH 7.4; ΔTm = Tm with peptide minus Tm of 14-3-3ε alone; conditions: both partners purified

Molecule | ΔTm (melting temperature shift of 14-3-3ε) (14-3-3ε [1]) [°C] | ΔG ± SD (free energy of binding derived from KD) (14-3-3ε [2]) [kJ/mol] | Kd ((His)6-14-3-3ε [4]) [µM] | also measured
CC(=O)N[C@@H](CCC(N)=O)C(=O)N[C@@H](CCCNC(=N)N)C(=O)N[C@@H](CCC(N)=O)C(=O)N[C@@H](CCCCN)C(=O)N[C@@H](COP(=O)(O)O)C(=O)N[C@@H](C)C(=O)N1CCC[C@H]1C(=O)N[C@@H](C)C(=O)N[C@@H](CCCNC(=N)N)C(N)=O [[Lys^177]pS(174–182)] (Ac-QRQK[pS]APAR-NH2) | 0.23 ± 0.09 | -30.12 ± 0.23 | – | –
CC(=O)N[C@@H](CCC(N)=O)C(=O)N[C@@H](CCCNC(=N)N)C(=O)N[C@@H](Cc1ccccc1)C(=O)N[C@@H](CC(N)=O)C(=O)N[C@@H](COP(=O)(O)O)C(=O)N[C@@H](C)C(=O)N1CCC[C@H]1C(=O)N[C@@H](C)C(=O)N[C@@H](CCCNC(=N)N)C(N)=O [[Phe^176]pS(174–182)] (Ac-QRFN[pS]APAR-NH2) | 1.08 ± 0.34 | – | – | –
CC(=O)N[C@@H](CCC(N)=O)C(=O)N[C@@H](CCCNC(=N)N)C(=O)N[C@@H](CCC(N)=O)C(=O)N[C@@H](CC(N)=O)C(=O)N[C@@H](COP(=O)(O)O)C(=O)N[C@@H](Cc1ccccc1)C(=O)N1CCC[C@H]1C(=O)N[C@@H](C)C(=O)N[C@@H](CCCNC(=N)N)C(N)=O [[Phe^179]pS(174–182)] (Ac-QRQN[pS]FPAR-NH2) | 0 | -24.15 ± 0.2 | – | –
CC(=O)N[C@@H](CCC(N)=O)C(=O)N[C@@H](CCCNC(=N)N)C(=O)N[C@@H](Cc1ccc(O)cc1)C(=O)N[C@@H](CC(N)=O)C(=O)N[C@@H](COP(=O)(O)O)C(=O)N[C@@H](C)C(=O)N1CCC[C@H]1C(=O)N[C@@H](C)C(=O)N[C@@H](CCCNC(=N)N)C(N)=O [[Tyr^176]pS(174–182)] (Ac-QRYN[pS]APAR-NH2) | 1.10 ± 0.32 | -36.76 ± 0.46 | – | –
CC(=O)N[C@@H](CCC(N)=O)C(=O)N[C@@H](CCCNC(=N)N)C(=O)N[C@@H](CCC(N)=O)C(=O)N[C@@H](CC(N)=O)C(=O)N[C@@H](COP(=O)(O)O)C(=O)N[C@@H](Cc1ccc(O)cc1)C(=O)N1CCC[C@H]1C(=O)N[C@@H](C)C(=O)N[C@@H](CCCNC(=N)N)C(N)=O [[Tyr^179]pS(174–182)] (Ac-QRQN[pS]YPAR-NH2) | 0 | -22.47 ± 0.39 | – | –
CC(=O)N[C@@H](CCC(N)=O)C(=O)N[C@@H](CCCNC(=N)N)C(=O)N[C@@H](CCC(N)=O)C(=O)N[C@@H](CC(N)=O)C(=O)N[C@@H](COP(=O)(O)O)C(=O)N[C@@H](C)C(=O)N1CCC[C@H]1C(=O)N[C@@H](C)C(=O)N[C@@H](CCCNC(=N)N)C(N)=O [pS(174–182)] (Ac-QRQN[pS]APAR-NH2) | – | -28.76 ± 0.23 | – | –
CSCC[C@H](NC(=O)[C@H](CCCNC(=N)N)NC(=O)[C@H](C)NC(=O)[C@@H]1CCCN1C(=O)[C@H](C)NC(=O)[C@H](COP(=O)(O)O)NC(=O)[C@H](CC(N)=O)NC(=O)[C@H](CCC(N)=O)NC(=O)[C@H](CCCNC(=N)N)NC(=O)[C@H](CCC(N)=O)NC(=O)[C@@H](NC(C)=O)[C@@H](C)O)C(=O)N[C@@H](CC(C)C)C(=O)N[C@@H](CO)C(=O)N[C@@H](CO)C(N)=O [pS] (Ac-TQRQN[pS]APARMLSS-NH2) | 0.35 ± 0.16 | -37.96 ± 0.09 | – | IC50 (cSCC cells): 29 µM
B1 | – | – | 9.05 | Kd ((His)6-14-3-3ε [3]): 6.56 ± 2.16 µM
B2 | – | – | 0.41 | ΔTm ((His)6-14-3-3ε [5]): 1.1 °C
B3 | – | – | 116 | –
B4 | – | – | 0.36 | ΔTm ((His)6-14-3-3ε [5]): 1.08 °C
B5 | – | – | 5.23 | –
B6 | – | – | 58.3 | –
B7 | – | – | 0.22 | ΔTm ((His)6-14-3-3ε [5]): 0.35 °C
